# Where “and” joins values, the source holds several entries; their conditions need not be identical. Equal values may be shown once.
# Tests used:
# mouse TTR gene = experiment: In vivo editing in mouse liver, sgRNA targeting TTR (G282 or G502), % indel by NGS; design: species or system CD-1 female mice
# Procedure: CD-1 female mice ranging from 6-10 weeks of age were used in each study. Animals were weighed and grouped according to body weight for preparing dosing solutions based on group average weight. LNPs were dosed via the lateral tail vein in a volume of 0.2 mL per animal (approximately 10 mL per kilogram body weight). The animals were periodically observed for adverse effects for at least 24 hours post dose. For studies measuring in vivo editing in liver, CD-1 female mice were dosed at 0.1 mg/kg unless otherwise noted. Animals were euthanized at 6 or 7 days by ex sanguination via cardiac puncture under isoflurane anesthesia. Liver tissue was collected from each animal for DNA extraction and analysis. Blood was collected into serum separator tubes or into tubes containing buffered sodium citrate for plasma as described herein. Cohorts of mice were measured for editing by Next-Generation Sequencing (NGS).
# In brief, to quantitatively determine the efficiency of editing at the target location in the genome, genomic DNA was isolated and deep sequencing was utilized to identify the presence of insertions and deletions introduced by gene editing.
# PCR primers were designed around the target site (e.g., within B2M), and the genomic area of interest was amplified. Additional PCR was performed according to the manufacturer's protocols (Illumina) to add the necessary chemistry for sequencing. The amplicons were sequenced on an Illumina MiSeq instrument. The reads were aligned to the mouse or rat reference genome (e.g., GRCm38) after eliminating those having low quality scores. The resulting files containing the reads were mapped to the reference genome (BAM files), where reads that overlapped the target region of interest were selected and the number of wild type reads versus the number of reads which contain an insertion, substitution, or deletion was calculated.
# The editing percentage (e.g., the “indel efficiency” or “percent indels”) was defined as the total number of sequence reads with insertions or deletions over the total number of sequence reads, including wild type.
# We assessed in vivo editing efficiency for materials delivered with formulations including various amine lipid compounds. Editing was measured using either G282 (SEQ ID No: 1) which targets the mouse TTR gene or G650 (SEQ ID No. 2) which targets the mouse B2M gene. Lipids described above were assessed for efficacy through in vivo editing experiments. LNPs were formulated at a 1:1 or 1:1.3 w/w ratio of sgRNA to Cas9 mRNA, and at an N/P ratio of about 6. Molar concentrations of lipids in the lipid component of the LNPs are used at mol % amine lipid/DSPC/cholesterol/PEG-2k-DMG of 50/9/38/3. The final LNPs were characterized to determine the encapsulation efficiency, polydispersity index, and average particle size according to the analytical methods provided above. Analysis of average particle size, polydispersity (PDI), total RNA content and encapsulation efficiency of RNA are shown in Table 2.
# To assess whether the editing was dose responsive, experiments were performed in vivo at various LNP dose levels. Cas9 mRNA of Example 120 was formulated as LNPs with an sgRNA targeting TTR (G282, SEQ ID NO: 1; or G502, SEQ ID NO: 4).
# We assessed in vivo delivery by measuring editing efficiency for materials delivered with formulations that included various amine lipid compounds. Cas9 mRNA (SEQ ID NO: 6) was formulated as LNPs with an sgRNA targetting the TTR mouse gene (SEQ ID NO: 4). LNPs were formulated at a 1:2 w/w ratio of sgRNA to Cas9 mRNA, and at an N/P ratio of about 6. Molar concentrations of lipids in the lipid component of the LNPs are used at mol % amine lipid/DSPC/cholesterol/PEG-2k-DMG of 50/9/38/3. The final LNPs compositions were characterized and analyzed as described in Example 120. Analysis of average particle size, polydispersity (PDI), total RNA content and encapsulation efficiency of RNA are shown in Table 6.
# Transthyretin (TTR) = experiment: Serum TTR ELISA in mice after LNP dosing; assay type: in vivo, CD-1 female mice
# How it was run: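 Serum mouse TTR was quantified by ELISA at 10,000-fold dilution for 0.1 mg/kg and 10,000/2,500-fold for 0.3 mg/kg. Samples came from female CD-1 mice (6–10 weeks) killed 6 or 7 days after a single intravenous LNP dose, usually 0.1 mg/kg.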
# [1] = RNA encapsulation efficiency of LNPs (Ribogreen fluorescence assay); assay type: physicochemical; conditions: LNP; for Encapsulation (%): sg:mRNA 1:1, N/P about 6, amine lipid/DSPC/cholesterol/PEG-2k-DMG 50/9/38/3, Table 2, Experiments 2-20
# How it was run: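 Encapsulation efficiency is (Total RNA − Free RNA)/Total RNA. Free RNA was quantified by RiboGreen fluorescence (488/525 nm, ~10 min, RT, dark) in plain TE buffer; total RNA was quantified after LNP lysis with 0.2% Triton X-100, both against RNA standard curves.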
# [2] = Dynamic light scattering of LNPs: Z-average diameter, number average diameter, PDI; assay type: physicochemical; conditions: LNP
# How it was run: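 Values reported are the Z-average (intensity-weighted mean size), the number-average diameter and the PDI (spread of sizes, 0 = fully uniform). All three came from dynamic light scattering of LNP preparations after dilution in PBS.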
# [3] = pKa measurement of unformulated amine lipid (fluorescence, method of Jayaraman et al.); assay type: physicochemical; conditions: 100 μM in 0.1 M phosphate buffer, pH 2.0-12.0
# Procedure: The pKa of each amine lipid was determined according to the method in Jayaraman, et al. (Angewandte Chemie, 2012) with the following adaptations. […] Lipid was diluted to 100 μM in 0.1 M phosphate buffer (Boston Bioproducts) where the pH ranged from 2.0-12.0. Fluorescence intensity was measured using excitation and emission wavelengths of 321 nm and 448 nm.
# [4] = LNP i.v. 0.03 mg/kg, guide G502, Experiment 105
# [5] = LNP i.v. 0.1 mg/kg, guide G502, Experiment 105
# [6] = mouse, LNP i.v. 0.03 mg/kg, guide G502, Experiment 105
# [7] = mouse, LNP i.v. 0.03 mg/kg, guide G502, Experiment 105, relative to TSS control
# [8] = mouse, LNP i.v. 0.1 mg/kg, guide G502, Experiment 105
# [9] = mouse, LNP i.v. 0.1 mg/kg, guide G502, Experiment 105, relative to TSS control
# [10] = sg:mRNA 1:2, N/P 6.0, 50/9/38/3, Table 4, Experiment 105
# [11] = sg:mRNA 1:1, N/P about 6, 50/9/38/3, Table 2, Experiments 2-20
# [12] = LNP i.v. 0.1 mg/kg, guide G282, Experiments 101-103
# [13] = LNP i.v. 0.3 mg/kg, guide G282, Experiments 101-103
# [14] = mouse, LNP i.v. 0.1 mg/kg, guide G282, Experiments 101-103
# [15] = mouse, LNP i.v. 0.1 mg/kg, guide G282, Experiments 101-103, relative to TSS control
# [16] = mouse, LNP i.v. 0.3 mg/kg, guide G282, Experiments 101-103
# [17] = mouse, LNP i.v. 0.3 mg/kg, guide G282, Experiments 101-103, relative to TSS control
# [18] = sg:mRNA 1:1, N/P 6.0, 50/9/38/3, Table 4, Experiments 101-104
# [19] = sg:mRNA 1:2, N/P about 6, 50/9/38/3, Table 6, Experiments 106-107
SMILES,Encapsulation (%) [1],"Number mean (nm) [2, 11]","Z-avg (nm) [2, 11]","% E [1, 18] [%]","Number mean (nm) [2, 18] [nm]","PDI [2, 18]","Z-avg (nm) [2, 18] [nm]",pKa [3],Editing Mean % Indel (mouse TTR gene; [4]) [%],Editing Mean % Indel (mouse TTR gene; [5]) [%],Serum TTR (Transthyretin (TTR); [6]) [µg/mL],Serum TTR % TSS (Transthyretin (TTR); [7]) [%],Serum TTR (Transthyretin (TTR); [8]) [µg/mL],Serum TTR % TSS (Transthyretin (TTR); [9]) [%],Editing Mean % Indel (mouse TTR gene; [12]) [%],Editing Mean % Indel (mouse TTR gene; [13]) [%],Serum TTR (Transthyretin (TTR); [14]) [µg/mL],Serum TTR % TSS (Transthyretin (TTR); [15]) [%],Serum TTR (Transthyretin (TTR); [16]) [µg/mL],Serum TTR % TSS (Transthyretin (TTR); [17]) [%],other results
"CCCCC/C=C\C/C=C\CCCCCCCC(=O)OCC(COC(=O)CCCN(CC)CC)COC(=O)CCC(OCCCCCCCC)OCCCCCCCC (stereo not drawn) [Compound 29, 3-((4,4-bis(octyloxy)butanoyl)oxy)-2-(((4-(diethylamino)butanoyl)oxy)methyl)propyl (9Z,12Z)-octadeca-9,12-dienoate]",98%,66.92 nm and 64.63 nm,82.41 nm and 78.63 nm,99,70,0.003,84,6.84,,,,,,,31.4,54.8,663,48,205,15,
"CCCCCC/C=C\COC(=O)CCCCCCCC(=O)OCC(COC(=O)CCC(OCCCCCCCC)OCCCCCCCC)COC(=O)OCCCN(CC)CC (stereo not drawn) [Compound 54, (Z)-1-(3-((4,4-bis(octyloxy)butanoyl)oxy)-2-((((3-(diethylamino)propoxy)carbonyl)oxy)methyl)propyl) 9-(non-2-en-1-yl) nonanedioate]",98%,76.95 nm and 71.8 nm and 78.39 nm,95.76 nm and 89.8 nm and 99.71 nm,98,77.96,0.032,96.98,6.4,,,,,,,28.3,64.8,449,49,97,11,
"CCCCCCCCOC(CCC(=O)OCC(COC(=O)CCCCCCCCCCC(=O)OCCCCCCC)COC(=O)OCCCN(CC)CC)OCCCCCCCC (stereo not drawn) [Compound 61, 1-(3-((4,4-bis(octyloxy)butanoyl)oxy)-2-((((3-(diethylamino)propoxy)carbonyl)oxy)methyl)propyl) 12-heptyl dodecanedioate]",97%,72 nm,87.26 nm,,,,,6.29,7.78,36.06,711,65,472,43,,,,,,,"% E [1, 10]: 98%; PDI [2, 11]: 0.018; Number mean (nm) [2, 10]: 79.73 nm; PDI [2, 10]: 0.033; Z-avg (nm) [2, 10]: 99.25 nm"

# Now from value to compound, other results behind:
Encapsulation (%) [1],"Number mean (nm) [2, 11]","Z-avg (nm) [2, 11]","% E [1, 18] [%]","Number mean (nm) [2, 18] [nm]","PDI [2, 18]","Z-avg (nm) [2, 18] [nm]",pKa [3],SMILES,Editing Mean % Indel (mouse TTR gene; [4]) [%],Editing Mean % Indel (mouse TTR gene; [5]) [%],Serum TTR (Transthyretin (TTR); [6]) [µg/mL],Serum TTR % TSS (Transthyretin (TTR); [7]) [%],Serum TTR (Transthyretin (TTR); [8]) [µg/mL],Serum TTR % TSS (Transthyretin (TTR); [9]) [%],Editing Mean % Indel (mouse TTR gene; [12]) [%],Editing Mean % Indel (mouse TTR gene; [13]) [%],Serum TTR (Transthyretin (TTR); [14]) [µg/mL],Serum TTR % TSS (Transthyretin (TTR); [15]) [%],Serum TTR (Transthyretin (TTR); [16]) [µg/mL],Serum TTR % TSS (Transthyretin (TTR); [17]) [%],other results
98% and 97%,61.34 nm and 66.88 nm and 63.16 nm,76.82 nm and 83.92 nm and 77.24 nm,,,,,,"CCCCC/C=C\C/C=C\CCCCCCCC(=O)OCC(COC(=O)CCC(OCCCCCCCC)OCCCCCCCC)COC(=O)OCCC1CCCN1C (stereo not drawn) [Compound 24, 3-((4,4-bis(octyloxy)butanoyl)oxy)-2-((((2-(1-methylpyrrolidin-2-yl)ethoxy)carbonyl)oxy)methyl)propyl (9Z,12Z)-octadeca-9,12-dienoate]",11.34,40.54,772,70,420,38,,,,,,,"Serum TTR % TSS (Transthyretin (TTR); mouse serum TTR relative to TSS control, guide G282 experiments): 46%; Serum TTR (Transthyretin (TTR); mouse serum, guide G282 experiments, ELISA): 397 µg/mL; % E [1, 10]: 99%; PDI [2, 11]: 0.027 and 0.033 and 0.025; Number mean (nm) [2, 10]: 72.95 nm; PDI [2, 10]: 0.029; Z-avg (nm) [2, 10]: 88.39 nm"
98% and 99%,58.67 nm and 59.35 nm,75.11 nm and 73.65 nm,99,61,0.04,76,7.31,"CCCCC/C=C\C/C=C\CCCCCCCC(=O)OCC(COC(=O)CCC(OCCCCCCCC)OCCCCCCCC)COC(=O)C1CCN(C)CC1 (stereo not drawn) [Compound 31, 3-((4,4-bis(octyloxy)butanoyl)oxy)-2-((((9Z,12Z)-octadeca-9,12-dienoyl)oxy)methyl)propyl 1-methylpiperidine-4-carboxylate]",,,,,,,13.5,50.7,976,71,226,17,
,,,,,,,7.2,"CCCCC/C=C\C/C=C\CCCCCCCC(=O)OCC(COC(=O)CCC(OCCCCCCCC)OCCCCCCCC)COC(=O)NCCN1CCCC1 (stereo not drawn) [Compound 100, 3-((4,4-bis(octyloxy)butanoyl)oxy)-2-((((2-(pyrrolidin-1-yl)ethyl)carbamoyl)oxy)methyl)propyl (9Z,12Z)-octadeca-9,12-dienoate]",,,,,,,,,,,,,"Editing Mean % Indel (mouse TTR gene; guide G502, i.v. 0.1 mg/kg, sgRNA:Cas9 mRNA 1:2 w/w, experiments 106, 107): 12%; Serum TTR % TSS (Transthyretin (TTR); mouse serum TTR relative to TSS control, guide G502, i.v. 0.1 mg/kg): 81.3%; Serum TTR (Transthyretin (TTR); mouse serum, guide G502, i.v. 0.1 mg/kg): 1017.4 µg/mL; % E ([1]; sg:mRNA 1:2, N/P about 6, 50/9/38/3, TTR sgRNA (SEQ ID NO: 4), Table 6, Experiments 106-107): 99%; Number mean (nm) [2, 19]: 70 nm; PDI [2, 19]: 0.04; Z-avg (nm) [2, 19]: 89 nm"

# From patent publication US20220402862A1 (Intellia Therapeutics, Inc., priority 2019, published 2022)
